Laboratory results: paper PMC11324527, “Cryo-EM architecture of a near-native stretch-sensitive membrane microdomain” (Nature, 2024)

Experiments:
[1] = molecular target: Pil1–mCherry (Saccharomyces cerevisiae, UniProt P53252); details: labelled compound; 1% PI(4,5)P2; PI(4,5)P2-dependent; pH 7.4, 150 mM KoAc, 2 mM MgAc
[2] = molecular target: T1, Pil1 (recombinant, reconstituted tubules) (Saccharomyces cerevisiae, UniProt P53252); assay: cryo-EM helical reconstruction of reconstituted tubules; assay type: binding
T1 construct: PIL1 in pCoofy6, 6xHis-Sumo3 tag cleaved by SenP2, E. coli BL21(DE3)pLysS; homodimer in helical lattice on lipid tubules; model stops before residue 275
T1 sequence (P53252 1-339): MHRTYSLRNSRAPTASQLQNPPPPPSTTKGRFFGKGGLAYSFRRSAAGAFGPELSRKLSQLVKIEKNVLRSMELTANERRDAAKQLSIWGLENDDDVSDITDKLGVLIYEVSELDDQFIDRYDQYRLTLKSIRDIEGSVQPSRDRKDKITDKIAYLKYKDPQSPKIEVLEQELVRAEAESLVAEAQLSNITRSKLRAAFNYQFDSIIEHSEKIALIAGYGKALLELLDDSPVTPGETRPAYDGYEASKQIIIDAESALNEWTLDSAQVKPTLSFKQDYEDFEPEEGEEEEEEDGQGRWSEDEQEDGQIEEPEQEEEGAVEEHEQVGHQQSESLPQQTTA

[3] = molecular target: the molecule itself; assay: cryo-EM structure; native-source eisosome tubules isolated from S. cerevisiae with bound plasma membrane bilayer; helical reconstruction of nine tubule types, symmetry expansion and density subtraction; dimers in a helical lattice
[4] = molecular target: the molecule itself; assay: cryo-EM structure; 15-20 uM recombinant Pil1 with about 2 mg/ml LUVs of known lipid mixtures, 30 °C for one hour, 20 mM HEPES pH 7.4, 150 mM KoAc, 2 mM MgAc; helical reconstruction; dimers in a helical lattice

CC1=CC(C)=[N+]2C1=C(CC[C@@H](C)[C@H]1CC[C@H]3[C@@H]4CC=C5C[C@@H](O)CC[C@]5(C)[C@H]4CC[C@]13C)c1c(C)cc(C)n1[B-]2(F)F [TF-cholesterol]
mobile fraction [1]: immobilized fraction of cholesterol interacts strongly with Pil1 and/or other lipids bound to the protein

CC(C)CCC[C@@H](C)[C@H]1CC[C@H]2[C@@H]3CC=C4C[C@@H](O)CC[C@]4(C)[C@H]3CC[C@]12C [cholesterol]
cryo-EM helical reconstruction of reconstituted tubules ([2]; +PI(4,5)P2/+sterol (15% cholesterol), void pattern below amphipathic helix, sterol not modelled): this pattern results from the stable association of sterol molecules with the AH

CCCCCCCC/C=C\CCCCCCCC(=O)OC[C@H](COP(=O)(O)OC[C@H](N)C(=O)O)OC(=O)CCCCCCC/C=C\CCCCCCCC [DOPS]
cryo-EM helical reconstruction of reconstituted tubules ([2]; +PI(4,5)P2/+sterol (15% cholesterol) mixture, site R43, K66, R70): This density accommodates a phosphatidylserine (PS) lipid (DOPS is present in our lipid mixtures)

B1: Pil1 (native-source eisosome) (natural protein, S. cerevisiae (endogenous in yeast), UniProt P53252 1-339, looked up)
chain: T1 sequence (P53252 1-339)
notes: Pil1, BAR-domain eisosome protein of S. cerevisiae; model built up to residue 274 (C-terminal region from residue 275 removed, no density); Stands in the tubules as dimers in a helical lattice; also called Pil1/Lsp1; PIL1_YEAST; source: endogenous, untagged, S. cerevisiae
stoichiometry N [3]: 2

B2: Recombinant Pil1 (natural protein, S. cerevisiae, UniProt P53252 1-339, looked up)
chain: T1 sequence (P53252 1-339)
notes: Pil1 of S. cerevisiae, PIL1 cloned into pCoofy6 with primers from the start codon to the stop codon; Vector pCoofy6 (Addgene plasmid 43990) gives 6xHis-Sumo3; the Sumo3 tag was cleaved off with SenP2; It forms dimers in a helical lattice on liposomes; also called purified Pil1; reconstituted Pil1; source: E. coli BL21(DE3)pLysS, purified (HisTrap, HiTrap Q, SenP2 cleavage, Superdex 200); not …
stoichiometry N [4]: 2
